Values after ≈ are worked out from the molar mass of the structure shown.
Key:
[1] = Precipitation on addition of acidic prodrug solution to phosphate buffer pH 7.4; assay type: physicochemical
Protocol: At appropriate time intervals, samples were withdrawn and centrifuged for 5 min at 13,000 rpm and the supernatant was analysed by HPLC for DPX-4-0001 and formed ketorolac. The HPLC method described in Example 26 was applied. […] A slight increase in the ketorolac concentration is the result of pH dependent hydrolysis of the prodrug bond (FIG. 3).
The pH in the suspension was measured to 7.0.

[2] = Solubility at acidic pH, with and without DMA cosolvent; assay type: physicochemical
Protocol: A suspension of DPX-2-0007 (as hydrochloride salt) was formed by adding 30 mg to 4 mL demineralized water. After rotation of the suspension at 37° C. for 3 days, 1.0 mL sample was taken and after filtration (disposable syringe filters), the solution was diluted in methanol:water 1:1 and analyzed immediately by HPLC for prodrug. […] The pH in the solution was measured to 3.40. The following HPLC method was used: Merck Hitachi L 6200 pump connected to Merck Hitachi 4250 UV detector. Reversed phase chromatography was performed using a RP 18 Symmetry Shields® column (150×4.6 mm, 5 μm particles) equipped with a SecurityGuard precolumn (Phenomenex, Torrance, Calif., USA). […] The retention time of naproxen and DPX-2-0007 were 19 and 5.8 min, respectively.
A suspension of DPX-2-0006 was formed by adding 10 mg to 3 mL demineralized water, 0.05 mL 0.100 M HCl was added to obtain a pH of 3. After rotation of the suspension at 37° C. for 1 days, 0.5 mL sample was taken and after filtration (disposable syringe filters), the solution was diluted in methanol:water 1:1 and analyzed immediately by HPLC for prodrug. […] The HPLC method described in Example 29 was applied and the retention time of DPX-2-0006 was 14 min, respectively. N,N-dimethylacetamide (DMA) was added stepwise to the acidic suspension of DPX-2-0006 and the amount of DPX-2-000 dissolved in the presence of various volumes of DMA was determined after 1-3 days rotation at 37° C. as described above.

[3] = Stability of a suspension of prodrug in 80% human synovial fluid pH 7.4, formation of ketorolac; assay type: in vitro ADME; settings: after 21 hours
Protocol: (§1) The stability of a suspension of DPX-4-0001 in 80% human synovial fluid pH 7.4 (SF) from arthritis patients was investigated at 37° C. The reaction was initiated by adding 5 ml preheated SF to 2 mg DPX-4-0001. At appropriate time intervals, 400 μl samples were taken and centrifuged for 5 min at 13.000 rpm and 200 μl of the supernatant was deproteinised with 400 μl acetonitrile. After centrifugation for 4 min at 13000 rpm, the supernatant was analysed by HPLC for DPX-4-0001 as well as formed ketorolac. The HPLC method described in Example 26 was applied.

[4] = Solubility of the prodrugs in PBS (67 mM phosphate buffer pH 7.4)
Protocol: The determination of the solubility of a prodrug at different pH values of interest according to the present invention is carried by adding excess solid prodrug to a container containing a buffer solution with well-defined pH. The mixture is rotated at constant temperature until an equilibrium between solid prodrug and prodrug in solution has established (that is until the prodrug concentration in the supernatant remains constant). At each measurement the pH of the supernatant is controlled and, if needed, adjusted to the desired pH.
Suspensions of the prodrugs in 67 mM phosphate buffer pH 7.4 (PBS) were prepared by adding 10 mL PBS to approximately 5 mg prodrug. The suspensions were kept unstirred at 37° C. in an incubator hood. At appropriate time intervals over 23 days, about 500 μL samples were taken and after filtration (disposable syringe filters), the solutions were analyzed immediately by HPLC for parent drug and remaining prodrug. Quantitation of parent drug and prodrug was done from peak area measurements in relations to those of standards analysed by HPLC at the same conditions. […] For the diclofenac and ibuprofen prodrugs, the following method was used: Merck Hitachi L 6000 pump connected to Merck Hitachi 4250 UV detector. Reversed phase chromatography was performed using a C18 Gemini® RP column (150×4.6 mm, 5 μm particles) (Phenomenex, Torrance, Calif., USA) equipped with a SecurityGuard precolumn (Phenomenex, Torrance, Calif., USA). The flow rate was set at 1 mL/min and the column effluent was monitored at 230 nm. The mobile phase consisted of 35% (v/v) acetonitrile and 65% (v/v) of 0.1% (v/v) phosphoric acid pH 3.2. The retention times varied in the range of 3 to 30 min.
From the observed relatively stable concentration of dissolved prodrugs measured in the suspensions after 8-9 day up to 23 days, the solubilities of the prodrugs (Sprodrug) were determined.

[5] = Stability of a suspension of DPX-4-0001 in 67 mM phosphate buffer pH 7.4 (comparison to SF); assay type: physicochemical; settings: suspension in 67 mM phosphate buffer pH 7.4, 37° C.
Protocol: as §1
For comparison, the stability of a suspension of DPX-4-0001 in 67 mM phosphate buffer pH 7.4 was investigated by the same procedure at 37° C. […] Since the synovial disappearance half-lives of small-molecule drugs are in the range 2-5 h, the concentration of the active agent in the joint space is determined by the prodrug properties (i) solubility, (ii) degree of protein binding, and (iii) rate of cleavage of the prodrug bond, as well as (iv) the administered dose.

pKa value = assay type: physicochemical

dissolved prodrug concentration after initial precipitation phase ([1]; 67 mM phosphate buffer pH 7.4, over 25 h): low and fairly constant concentration | precipitation after addition to buffer ([1]; 300 μl of solution in 0.01 M HCl added to 5 ml 67 mM phosphate buffer pH 7.4, no esterases): a precipitation process was observed | solubility ([2]; buffer solution, pH 2.02, aqueous buffer, thermodynamic from solid, pH 2.02, hydrochloride salt): 65 µg/mL | fold decrease in solubility from pH 2.02 to pH 7.4 ([2]; pH 2.02 vs pH 7.4): 1300 fold | concentration of dissolved prodrug in SF ([3]; 80% human synovial fluid pH 7.4, 37° C.): about 2.2×10^−5 M | conversion of the added amount of prodrug ([3]; 80% human synovial fluid, 37° C.): 28% | solubility ([4]; 67 mM phosphate buffer (PBS), pH 7.4, aqueous buffer, thermodynamic from solid): ~0.05 µg/mL (≈ 0.124 µM) | solubility thermodynamic ([4]; 67 mM phosphate buffer pH 7.4 (PBS), 37 °C, pH 7.4, aqueous buffer, thermodynamic from solid): 0.1 ± 0.1 µM (≈ 0.0402 µg/mL) | Sprodrug ± SD ([4]; PBS (67 mM phosphate buffer pH 7.4), 37° C.): 0.05 ± 0.03 µg/mL | degradation of prodrug (to ketorolac) in phosphate buffer [5]: no significant degradation | final prodrug concentration in phosphate buffer [5]: about 8×10^−7 M | pKa (pKa value): ~5.2
SMILES: CN(C)c1ccc(CCOC(=O)C2CCn3c(C(=O)c4ccccc4)ccc32)cc1 (stereo not drawn) [DPX-4-0001, 4-(dimethylamino)phenethyl 5-benzoyl-2,3-dihydro-1H-pyrrolizine-1-carboxylate]

From patent US9809557B2 (priority 2011, dated 2017)
